Results on eleven compounds are retold here after PubChem BioAssay (NCI).

Molecules are shown by their SMILES. “And” between values parts separate entries of the source, which are not always exact repeats. Equal entries are not always repeated.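 Each compound was tested at five concentrations against cells in 96-well plates for 48 hours. GI50 marks 50% less growth. TGI is the concentration that stops growth completely.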 Bounds are passed on as bounds.

Some test systems named below: COLO 205 colon; MDA-MB-231 breast; MDA-MB-435; NCI-H522 lung; OVCAR-3 ovarian; PC-3 prostate; SF-295 CNS; DLD-1 colon; SNB-78 CNS.
Holding throughout (assay): NCI anticancer screen, dose series, 48 h

Consider `CCN(CC)CCNC(=O)c1c(C)[nH]c(/C=C2\C(=O)Nc3ccc(F)cc32)c1C`, for which the GI50 in the experiment with COLO 205 colon was 3.57 µM and 2.98 µM and 3.39 µM; with MDA-MB-231 breast, 7.2 µM and 3.26 µM and 3.52 µM; with MDA-MB-435, 2.8 µM and 1.63 µM and 1.78 µM; with NCI-H522 lung, 6.2 µM and 3.52 µM and 2.73 µM; in the experiment on OVCAR-3 ovarian, > 10 µM and 3.41 µM and 3.33 µM; with PC-3 prostate it was 1.84 µM and 3.82 µM and 2.9 µM. Moreover, in the experiment with SF-295 CNS, the GI50 was > 10 µM and 4.09 µM and 10.2 µM. The TGI is > 10 µM and 5.84 µM and 8.8 µM in the experiment with COLO 205 colon; > 10 µM and 6.68 µM and 14.5 µM in the experiment on MDA-MB-231 breast; > 10 µM and 5.1 µM and 8.49 µM in the experiment with MDA-MB-435; > 10 µM and 6.92 µM and 6.1 µM with NCI-H522 lung; > 10 µM and 6.34 µM and 7.54 µM in the experiment with OVCAR-3 ovarian; > 10 µM and 20 µM and 14.5 µM in the experiment with PC-3 prostate. In the experiment with SF-295 CNS, the TGI is > 10 µM and 8.23 µM and 24.1 µM.

`CCOC1Oc2ccccc2-c2oc(=O)c(Sc3ccc(C)cc3)cc21` (centres undefined): the GI50 is 25.2 µM in the experiment with COLO 205 colon; 16.9 µM in the experiment on MDA-MB-231 breast; 23.6 µM in the experiment on MDA-MB-435; 18.4 µM in the experiment with NCI-H522 lung; 18.1 µM with OVCAR-3 ovarian; 17.8 µM with PC-3 prostate. The GI50 in the experiment with SF-295 CNS was 19.2 µM. Also, the TGI with COLO 205 colon is more than 100 µM; with MDA-MB-231 breast, 67.7 µM; in the experiment on MDA-MB-435, more than 100 µM; in the experiment with NCI-H522 lung, 82.9 µM; in the experiment on OVCAR-3 ovarian, more than 100 µM; in the experiment with PC-3 prostate, more than 100 µM. Besides, in the experiment on SF-295 CNS, the TGI was more than 100 µM.

Turning to `Cc1nc(Nc2n[nH]c3c2CN(C(=O)N[C@H](CN(C)C)c2ccccc2)C3(C)C)c2sccc2n1`, the GI50 in the experiment with COLO 205 colon is 0.00866 µM and < 0.0109 µM; with MDA-MB-231 breast, 0.0856 µM and 0.0341 µM; in the experiment with MDA-MB-435, 0.0272 µM and 0.0275 µM; with NCI-H522 lung, < 0.0168 µM and 0.0398 µM; with OVCAR-3 ovarian, 0.0255 µM and 0.0584 µM; in the experiment with PC-3 prostate, 0.242 µM and 0.041 µM. The GI50 in the experiment with SF-295 CNS was 0.078 µM and 0.066 µM. In addition, the TGI in the experiment with COLO 205 colon was 0.241 µM and 0.279 µM; in the experiment on MDA-MB-231 breast it was 1.98 µM and 1.95 µM; in the experiment on MDA-MB-435 it was > 3.52 µM and 3.35 µM; with NCI-H522 lung it was 2.28 µM and 2.74 µM; in the experiment on OVCAR-3 ovarian, 1.57 µM and 7.36 µM; in the experiment on PC-3 prostate, > 6.33 µM and 9.76 µM. For the same compound, the TGI in the experiment on SF-295 CNS was > 10 µM and 8.62 µM.

Consider `COc1ccccc1-c1cc(=O)c2ccc(C)nc2[nH]1`, for which the TGI with COLO 205 colon is more than 100 µM; with MDA-MB-231 breast, more than 100 µM; in the experiment on MDA-MB-435, 48.7 µM; in the experiment with NCI-H522 lung it was more than 100 µM; in the experiment on OVCAR-3 ovarian it was more than 100 µM; with PC-3 prostate it was more than 100 µM. Further, the TGI in the experiment with SF-295 CNS was more than 100 µM. Besides, the GI50 is 22 µM in the experiment on MDA-MB-435, more than 100 µM with OVCAR-3 ovarian, more than 100 µM with PC-3 prostate and more than 100 µM in the experiment on SF-295 CNS.

Regarding `O=C(/C=C/c1ccccc1)CC(c1ccccc1)N1CCOCC1` (centres undefined), the GI50 in the experiment with COLO 205 colon was 2.45 µM; in the experiment with MDA-MB-231 breast, 2.64 µM; in the experiment with MDA-MB-435, 1.91 µM; in the experiment on NCI-H522 lung, 4.1 µM; in the experiment on OVCAR-3 ovarian, 3.71 µM; with PC-3 prostate, 4.54 µM. Besides, in the experiment on SF-295 CNS, the GI50 is 2.7 µM. Also, the TGI in the experiment on COLO 205 colon was 5.64 µM; in the experiment with MDA-MB-231 breast, 6.95 µM; in the experiment with MDA-MB-435, 4.58 µM; with NCI-H522 lung it was 20 µM; in the experiment on OVCAR-3 ovarian it was 11.6 µM; in the experiment with PC-3 prostate, 19.1 µM. The compound also gave a TGI with SF-295 CNS of 10.5 µM.

`CC1(C)OC2COC3(CNO)OC(C)(C)OC3C2O1` (centres undefined): the TGI with COLO 205 colon, in the experiment on DLD-1 colon, in the experiment on OVCAR-3 ovarian, in the experiment on SF-295 CNS and in the experiment with SNB-78 CNS was more than 100 µM in each case.

For `COc1ccc(-c2nnc(N3CCN(C(=O)CN4CCN(c5ccc(OC)cc5)CC4)CC3)nc2-c2ccc(OC)cc2)cc1`, the GI50 with COLO 205 colon is 6.36 µM; with MDA-MB-231 breast, 11.7 µM; in the experiment with MDA-MB-435, 4.01 µM; with NCI-H522 lung, 3.32 µM; in the experiment on OVCAR-3 ovarian it was 2.1 µM; with PC-3 prostate, 8.49 µM. Also, the GI50 in the experiment on SF-295 CNS is 20.3 µM. Also, the TGI with COLO 205 colon is 29.7 µM; with MDA-MB-231 breast it was 41.2 µM; in the experiment on MDA-MB-435, more than 55.9 µM; in the experiment on NCI-H522 lung, 9.25 µM; with OVCAR-3 ovarian, 4 µM; in the experiment on PC-3 prostate it was 26.9 µM. The compound also returned a TGI in the experiment on SF-295 CNS of more than 72.1 µM.

On to `C[C@H](Cn1ncnn1)Nc1ncc2cc(Oc3ccc(F)cc3F)c(=O)n(C)c2n1`, for which the GI50 in the experiment with COLO 205 colon, in the experiment on MDA-MB-231 breast, with MDA-MB-435, with NCI-H522 lung, with OVCAR-3 ovarian and in the experiment on PC-3 prostate was more than 25 µM throughout. Moreover, the GI50 with SF-295 CNS was more than 25 µM. In addition, the TGI in the experiment on COLO 205 colon, with MDA-MB-231 breast, in the experiment on MDA-MB-435, with NCI-H522 lung, with OVCAR-3 ovarian and with PC-3 prostate was more than 25 µM throughout. The same compound had a TGI in the experiment with SF-295 CNS of more than 25 µM.

In the case of `CN(C)Cc1c[nH]c2c(NCCN)c3c(c(NCCN)c12)C(=O)c1ccccc1C3=O`, the GI50 with COLO 205 colon was 7.36 µM; in the experiment with MDA-MB-231 breast it was 0.949 µM; in the experiment on MDA-MB-435 it was 1.88 µM; in the experiment on NCI-H522 lung, 1.13 µM; in the experiment on OVCAR-3 ovarian, 1.74 µM; in the experiment with PC-3 prostate, 2.34 µM. In addition, the GI50 in the experiment on SF-295 CNS is 2.49 µM. Moreover, the TGI in the experiment on MDA-MB-231 breast is 2.86 µM; in the experiment with MDA-MB-435 it was 5.2 µM; in the experiment with NCI-H522 lung, 3.26 µM; in the experiment on OVCAR-3 ovarian, 6.43 µM; in the experiment on PC-3 prostate it was 8.42 µM; with SF-295 CNS, 8.45 µM.

In the case of `C=CCSc1nc2ccccc2c(=O)n1Cc1ccco1`, the TGI in the experiment on COLO 205 colon, in the experiment with MDA-MB-231 breast, with MDA-MB-435, in the experiment on NCI-H522 lung, in the experiment on OVCAR-3 ovarian and in the experiment with PC-3 prostate was more than 100 µM throughout. Also, the TGI in the experiment with SF-295 CNS was more than 100 µM.

Regarding `OB1OCc2cc(/C=C/c3cccc(C(F)(F)F)c3)ccc21`, the GI50 in the experiment with COLO 205 colon is 2.31 µM; in the experiment with MDA-MB-231 breast, 2.62 µM; in the experiment with MDA-MB-435 it was 5.29 µM; in the experiment on NCI-H522 lung, 0.991 µM; with OVCAR-3 ovarian, 1.37 µM; with PC-3 prostate, 1.88 µM. Moreover, the GI50 in the experiment with SF-295 CNS is 0.432 µM. The TGI in the experiment with COLO 205 colon is more than 100 µM; with MDA-MB-231 breast it was 11.1 µM; in the experiment on MDA-MB-435 it was more than 100 µM; in the experiment on NCI-H522 lung it was 87.9 µM; in the experiment on OVCAR-3 ovarian, 17.8 µM; in the experiment on PC-3 prostate, more than 100 µM. This compound also displayed a TGI with SF-295 CNS of 16.1 µM.
